Experimental data from paper PMC5590943, “Pharmacological characterisation of S 47445, a novel positive allosteric modulator of AMPA receptors” (PLoS ONE, 2017).

Key:
[1] = test system: Rat AMPA receptors; assay: AMPA-evoked currents, Xenopus laevis oocytes injected with rat cortex poly(A+) mRNA (two-electrode voltage clamp); assay type: cell-based; conditions: for Emax (fold increase): maximal potentiation, mean ± SEM; for EC2X: concentration giving a two-fold increase in current amplitude; for EC2X / EC50: geometric mean; for EC50: potentiation of 10 μM AMPA-evoked current
Procedure: (§1) Compounds were tested by bath application.

[2] = test system: Human AMPA receptors; assay: AMPA-evoked currents, Xenopus laevis oocytes injected with human hippocampal poly(A+) mRNA; assay type: cell-based; conditions: for Emax (fold increase): maximal potentiation, mean ± SEM; for EC2X: concentration giving a two-fold increase in current amplitude; for EC2X / EC50: geometric mean; for EC50: potentiation of 10 μM AMPA-evoked current
Procedure: as §1

[3] = target: T1, GluA1flop/GluA2flip AMPA receptors (Homo sapiens, UniProt P42261+P42262, Q607R); assay: 10 μM glutamate-evoked currents in Xenopus laevis oocytes expressing GluA1flop/GluA2flip (repetitive pulses, GYKI52466); assay type: cell-based; conditions: GYKI52466 10 to 1000 μM; 10 μM glutamate
T1 construct: host or cells: Xenopus laevis oocytes
T1 sequence (P42261 19-906): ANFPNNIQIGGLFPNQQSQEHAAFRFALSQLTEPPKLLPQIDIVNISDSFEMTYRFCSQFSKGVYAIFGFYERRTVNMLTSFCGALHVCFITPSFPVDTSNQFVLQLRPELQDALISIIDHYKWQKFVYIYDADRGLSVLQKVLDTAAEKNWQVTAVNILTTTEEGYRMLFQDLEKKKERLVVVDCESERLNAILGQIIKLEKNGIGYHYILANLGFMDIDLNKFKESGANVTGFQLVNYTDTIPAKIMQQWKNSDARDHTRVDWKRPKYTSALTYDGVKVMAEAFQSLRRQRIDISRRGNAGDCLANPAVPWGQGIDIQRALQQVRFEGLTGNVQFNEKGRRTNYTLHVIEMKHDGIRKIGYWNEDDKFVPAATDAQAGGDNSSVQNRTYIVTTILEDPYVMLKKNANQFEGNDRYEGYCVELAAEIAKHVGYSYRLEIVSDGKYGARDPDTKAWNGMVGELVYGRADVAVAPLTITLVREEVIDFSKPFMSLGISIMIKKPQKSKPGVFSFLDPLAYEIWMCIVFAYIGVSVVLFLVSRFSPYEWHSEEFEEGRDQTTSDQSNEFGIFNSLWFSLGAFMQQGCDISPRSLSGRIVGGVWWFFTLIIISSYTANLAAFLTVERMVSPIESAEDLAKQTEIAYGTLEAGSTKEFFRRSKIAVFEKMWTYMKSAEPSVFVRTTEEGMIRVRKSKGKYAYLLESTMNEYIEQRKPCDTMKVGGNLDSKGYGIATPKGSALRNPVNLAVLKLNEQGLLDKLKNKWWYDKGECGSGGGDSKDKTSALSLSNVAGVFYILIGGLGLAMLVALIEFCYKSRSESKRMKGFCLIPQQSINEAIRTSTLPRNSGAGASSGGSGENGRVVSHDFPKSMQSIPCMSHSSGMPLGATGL
T1 sequence (P42262 22-883 isoform P42262-2 Q607R limits assumed): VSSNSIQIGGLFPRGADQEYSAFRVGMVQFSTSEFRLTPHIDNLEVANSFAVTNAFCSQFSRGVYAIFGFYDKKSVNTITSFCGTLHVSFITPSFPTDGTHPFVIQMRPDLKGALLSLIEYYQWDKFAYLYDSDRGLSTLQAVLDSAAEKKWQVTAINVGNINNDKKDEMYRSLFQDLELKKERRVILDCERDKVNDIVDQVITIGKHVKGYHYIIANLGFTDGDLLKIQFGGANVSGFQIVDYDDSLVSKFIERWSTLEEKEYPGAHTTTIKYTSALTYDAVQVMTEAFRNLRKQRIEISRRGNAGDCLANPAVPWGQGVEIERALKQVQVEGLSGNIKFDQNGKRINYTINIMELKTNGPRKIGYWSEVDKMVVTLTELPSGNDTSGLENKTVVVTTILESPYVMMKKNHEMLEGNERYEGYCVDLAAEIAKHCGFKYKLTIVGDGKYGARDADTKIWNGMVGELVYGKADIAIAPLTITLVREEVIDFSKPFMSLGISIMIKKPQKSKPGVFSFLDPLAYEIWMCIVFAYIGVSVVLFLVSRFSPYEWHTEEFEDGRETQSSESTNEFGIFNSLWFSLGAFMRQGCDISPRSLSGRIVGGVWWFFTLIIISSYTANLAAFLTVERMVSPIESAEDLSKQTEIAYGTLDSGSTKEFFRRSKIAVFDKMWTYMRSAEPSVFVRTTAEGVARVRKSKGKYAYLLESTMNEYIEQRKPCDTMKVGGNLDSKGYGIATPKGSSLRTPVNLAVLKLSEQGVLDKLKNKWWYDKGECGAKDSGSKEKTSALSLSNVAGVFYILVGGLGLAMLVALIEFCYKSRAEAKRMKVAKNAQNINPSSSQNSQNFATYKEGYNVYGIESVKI
Procedure: as §1
To test the inhibition, the selective AMPA receptor antagonist GYKI52446 was used from 10 to 1000 μM on the potentiation caused by S 47445 (1 μM).
EC50 were determined either using Matlab (Mathworks inc., Natick, USA) or SAS v9.2 (SAS Institute inc., Cary, USA) softwares. To have a comparative value between the tested drugs when EC50 could not be determined (absence of plateau at high concentrations), the EC2X was determined. EC2X corresponds to the concentrations of the drug responsible for a two-fold increase in the amplitude of the current.

[4] = test system: isolated prefrontal cortex pyramidal neurons; design: method as in PMID 9221774, PMID 11408529; conditions: patch-clamp; cited from earlier work
[5] = test system: rat primary cortical cell cultures; assay: LDH release toxicity assay on rat primary cortical cell cultures; conditions: MK801 1 μM; data not shown
[6] = test system: GluA3flop receptors; design: method as in PMID 9221774, PMID 11408529; conditions: Xenopus oocytes; cited from earlier work

SMILES	Emax (fold increase) [1]	Emax (fold increase) [2]	EC2X [1]	EC50 [1]	EC2X [2]	EC50 [2]	further results
O=C(c1ccc2nccnc2c1)N1CCCCC1 [CX516]	1.72 ± 0.1 fold increase	3.13 fold increase					
O=C1c2cc3c(cc2OC2CCCN12)OCCO3 (centres unmarked) [CX614]	30.32 ± 5.67 fold increase	23.43 ± 2.32 fold increase	1.03 µM	17.3 µM	0.88 µM	11.4 µM	
NS(=O)(=O)c1cc2c(cc1Cl)NC(C1CC3C=CC1C3)NS2(=O)=O (centres unmarked) [Cyclothiazide]	8.86 ± 0.79 fold increase	9.40 ± 2.61 fold increase	1.68 µM	8.83 µM	1.54 µM	9.33 µM	
CC1=NN=C(c2ccc(N)cc2)c2cc3c(cc2C1)OCO3.Cl.Cl [GYKI52466, 4-(8-Methyl-9H-1,3-dioxolo[4,5-h][2,3]benzodiazepin-5-yl)-benzenamine dihydrochloride, reference compound]							Effect on the potentiation caused by S 47445 (1 μM) [3]: concentration-dependently reversed
CC(CNS(=O)(=O)C(C)C)c1ccc(-c2ccsc2)cc1 (centres unmarked) [LY392098]							Increase of agonist potency [4]: approximately 7 fold
CC(CNS(=O)(=O)C(C)C)c1ccc(-c2ccc(C#N)cc2)cc1 (centres unmarked) [LY404187]	16.40 ± 2.22 fold increase	29.67 ± 2.67 fold increase	0.32 µM	3.01 µM	0.37 µM	4.64 µM	
CC(C)S(=O)(=O)NC[C@H](C)c1ccc(-c2ccc(CCNS(C)(=O)=O)cc2)cc1 [LY451395]	14.03± 0.70 fold increase		0.04 µM	0.37 µM			
C[C@]12N[C@H](Cc3ccccc31)c1ccccc12 [MK801, reference compound]							Effect on 100 μM glutamate-mediated toxicity [5]: completely reversed
NC(=O)COc1c(F)cc(SCCNS(=O)(=O)c2ccccc2)cc1F [PEPA, 4-[2-(Phenylsulfonylamino)ethylthio]-2,6-Difluoro-Phenoxyacetamide]							Increase of agonist potency [6]: approximately 7 fold
O=S1(=O)N[C@H]2CCCN2c2ccccc21 [S 18986]	15.37 ± 2.21 fold increase	14.51 ± 1.53 fold increase	23.77 µM	125 µM	16.88 µM		
